Test results reported in patent US8952024B2, “Herbicidal pyrimidone derivatives” (E I du Pont de Nemours and Company, priority 2009, dated 2015).

Legend:
Assay in all cases: Test D pre-/postemergence plant response
Format in all cases: in vivo
[1] = test system: itchgrass (Rottboellia cochinchinensis)
Outline: (§1)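 Pre + post applications; loam/sand soil; solvent + surfactant vehicle; post-em plants 1- to 4-leaf (2–18 cm); greenhouse 14–21 d; visual score 0 (none) to 100 (full control) vs untreated.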

[2] = test system: black mustard (Brassica nigra)
Outline: as §1

[3] = test system: nutsedge (purple nutsedge, Cyperus rotundus)
Outline: as §1

[4] = test system: sandbur (southern sandbur, Cenchrus echinatus)
Outline: as §1

[5] = test system: dayflower (Virginia (VA) dayflower, Commelina virginica)
Outline: as §1

[6] = test system: bluegrass (annual bluegrass, Poa annua)
Outline: as §1

[7] = test system: mallow (common mallow, Malva sylvestris)
Outline: as §1

[8] = test system: field bindweed (Convolvulus arvensis)
Outline: as §1

[9] = test system: Surinam grass (Brachiaria decumbens)
Outline: as §1

[10] = test system: bermudagrass (Cynodon dactylon)
Outline: as §1

[11] = test system: groundsel (common groundsel, Senecio vulgaris); settings: Postemergence
Outline: as §1

[12] = test system: green foxtail (Setaria viridis)
Outline: as §1

[13] = test system: sowthistle (common sowthistle, Sonchus oleraceous)
Outline: as §1

[14] = test system: morningglory (pitted morningglory, Ipomoea lacunosa)
Outline: as §1

[15] = test system: goosegrass (Eleusine indica)
Outline: as §1

[16] = test system: quackgrass (Elytrigia repens)
Outline: as §1

[17] = test system: large crabgrass (Digitaria sanguinalis)
Outline: as §1

[18] = test system: signalgrass (broadleaf signalgrass, Brachiaria platyphylla)
Outline: as §1

[19] = Postemergence, 31 g ai/ha, scale 0 to 100
[20] = Postemergence, 62 g ai/ha, scale 0 to 100 (0 no effect, 100 complete control)
[21] = Postemergence, 125 g ai/ha, scale 0 to 100 (0 no effect, 100 complete control)
[22] = Postemergence, 16 g ai/ha, scale 0 to 100
[23] = Preemergence, 16 g ai/ha, scale 0 to 100, 0 no effect, 100 complete control
[24] = Preemergence, 31 g ai/ha, scale 0 to 100 (0 no effect, 100 complete control)
[25] = Preemergence, 62 g ai/ha, scale 0 to 100
[26] = Preemergence, 125 g ai/ha, scale 0 to 100
[27] = Postemergence, 31 g ai/ha, scale 0 to 100 (0 no effect, 100 complete control)

O=C1CCCC(O)=C1C(=O)c1cnc(-c2ccccc2)n(CC2CCCO2)c1=O (stereo not drawn) [Compound 59]
Plant response rating, Itchgrass [1, 19]: 15
Plant response rating, Itchgrass [1, 20]: 15
Plant response rating, Itchgrass [1, 21]: 75
Plant response rating, Itchgrass [1, 22]: 0
Plant response rating, Itchgrass [1, 23]: 0
Plant response rating, Itchgrass [1, 24]: 0
Plant response rating, Itchgrass [1, 25]: 0
Plant response rating, Itchgrass [1, 26]: 20
Plant response rating, Black Mustard [2, 27]: 40
Plant response rating, Black Mustard [2, 20]: 65
Plant response rating, Black Mustard [2, 21]: 98
Plant response rating, Black Mustard [2, 22]: 10
Plant response rating, Black Mustard [2, 23]: 20
Plant response rating, Black Mustard [2, 24]: 40
Plant response rating, Black Mustard [2, 25]: 60
Plant response rating, Black Mustard [2, 26]: 100
Plant response rating, Nutsedge, Purple [3, 19]: 0
Plant response rating, Nutsedge, Purple [3, 20]: 20
Plant response rating, Nutsedge, Purple [3, 21]: 25
Plant response rating, Nutsedge, Purple [3, 22]: 0
Plant response rating, Nutsedge, Purple [3, 23]: 0
Plant response rating, Nutsedge, Purple [3, 24]: 20
Plant response rating, Nutsedge, Purple [3, 25]: 20
Plant response rating, Nutsedge, Purple [3, 26]: 80
Plant response rating, Sandbur [4, 19]: 5
Plant response rating, Sandbur [4, 20]: 5
Plant response rating, Sandbur [4, 21]: 25
Plant response rating, Sandbur [4, 22]: 5
Plant response rating, Sandbur [4, 23]: 0
Plant response rating, Sandbur [4, 24]: 0
Plant response rating, Sandbur [4, 26]: 0
Plant response rating, Dayflower, VA [5, 20]: 60
Plant response rating, Dayflower, VA [5, 22]: 25
Plant response rating, Dayflower, VA [5, 24]: 0
Plant response rating, Dayflower, VA [5, 25]: 35
Plant response rating, Dayflower, VA [5, 26]: 35
Plant response rating, Bluegrass [6, 27]: 0
Plant response rating, Bluegrass [6, 20]: 0
Plant response rating, Bluegrass [6, 21]: 5
Plant response rating, Bluegrass [6, 22]: 0
Plant response rating, Bluegrass [6, 23]: 0
Plant response rating, Bluegrass [6, 24]: 0
Plant response rating, Bluegrass [6, 25]: 15
Plant response rating, Bluegrass [6, 26]: 30
Plant response rating, Mallow [7, 19]: 5
Plant response rating, Mallow [7, 20]: 5
Plant response rating, Mallow [7, 21]: 40
Plant response rating, Mallow [7, 22]: 0
Plant response rating, Mallow [7, 23]: 0
Plant response rating, Mallow [7, 24]: 65
Plant response rating, Mallow [7, 25]: 65
Plant response rating, Mallow [7, 26]: 65
Plant response rating, Field Bindweed [8, 19]: 5
Plant response rating, Field Bindweed [8, 20]: 30
Plant response rating, Field Bindweed [8, 21]: 60
Plant response rating, Field Bindweed [8, 22]: 5
Plant response rating, Field Bindweed [8, 23]: 0
Plant response rating, Field Bindweed [8, 24]: 0
Plant response rating, Field Bindweed [8, 25]: 20
Plant response rating, Field Bindweed [8, 26]: 60
Plant response rating, Surinam Grass [9, 19]: 35
Plant response rating, Surinam Grass [9, 20]: 50
Plant response rating, Surinam Grass [9, 21]: 60
Plant response rating, Surinam Grass [9, 22]: 30
Plant response rating, Surinam Grass [9, 23]: 5
Plant response rating, Surinam Grass [9, 24]: 90
Plant response rating, Surinam Grass [9, 26]: 100
Plant response rating, Bermudagrass [10, 27]: 40
Plant response rating, Bermudagrass [10, 20]: 70
Plant response rating, Bermudagrass [10, 21]: 80
Plant response rating, Bermudagrass [10, 22]: 35
Plant response rating, Bermudagrass [10, 23]: 0
Plant response rating, Bermudagrass [10, 24]: 0
Plant response rating, Bermudagrass [10, 25]: 40
Plant response rating, Bermudagrass [10, 26]: 90
Plant response rating, Groundsel ([11]; 31 g ai/ha, scale 0 to 100): 90
Plant response rating, Groundsel ([11]; 62 g ai/ha, scale 0 to 100 (0 no effect, 100 complete control)): 100
Plant response rating, Groundsel ([11]; 125 g ai/ha, scale 0 to 100 (0 no effect, 100 complete control)): 100
Plant response rating, Groundsel ([11]; 16 g ai/ha, scale 0 to 100): 70
Plant response rating, Foxtail, Green [12, 19]: 5
Plant response rating, Foxtail, Green [12, 20]: 20
Plant response rating, Foxtail, Green [12, 21]: 35
Plant response rating, Foxtail, Green [12, 22]: 0
Plant response rating, Foxtail, Green [12, 23]: 0
Plant response rating, Foxtail, Green [12, 24]: 0
Plant response rating, Foxtail, Green [12, 25]: 0
Plant response rating, Foxtail, Green [12, 26]: 0
Plant response rating, Sowthistle [13, 19]: 100
Plant response rating, Sowthistle [13, 20]: 100
Plant response rating, Sowthistle [13, 21]: 100
Plant response rating, Sowthistle [13, 22]: 70
Plant response rating, Sowthistle [13, 23]: 0
Plant response rating, Sowthistle [13, 24]: 95
Plant response rating, Sowthistle [13, 26]: 100
Plant response rating, Morningglory [14, 19]: 40
Plant response rating, Morningglory [14, 20]: 50
Plant response rating, Morningglory [14, 21]: 50
Plant response rating, Morningglory [14, 22]: 0
Plant response rating, Morningglory [14, 23]: 0
Plant response rating, Morningglory [14, 24]: 0
Plant response rating, Morningglory [14, 25]: 0
Plant response rating, Morningglory [14, 26]: 80
Plant response rating, Goosegrass [15, 19]: 20
Plant response rating, Goosegrass [15, 20]: 50
Plant response rating, Goosegrass [15, 21]: 65
Plant response rating, Goosegrass [15, 22]: 20
Plant response rating, Goosegrass [15, 23]: 0
Plant response rating, Goosegrass [15, 24]: 5
Plant response rating, Goosegrass [15, 25]: 20
Plant response rating, Goosegrass [15, 26]: 80
Plant response rating, Quackgrass [16, 19]: 0
Plant response rating, Quackgrass [16, 20]: 0
Plant response rating, Quackgrass [16, 21]: 0
Plant response rating, Quackgrass [16, 22]: 0
Plant response rating, Quackgrass [16, 23]: 0
Plant response rating, Quackgrass [16, 24]: 0
Plant response rating, Quackgrass [16, 26]: 0
Plant response rating, Crabgrass, Large [17, 19]: 35
Plant response rating, Crabgrass, Large [17, 20]: 50
Plant response rating, Crabgrass, Large [17, 21]: 70
Plant response rating, Crabgrass, Large [17, 22]: 35
Plant response rating, Crabgrass, Large [17, 23]: 0
Plant response rating, Crabgrass, Large [17, 24]: 35
Plant response rating, Crabgrass, Large [17, 25]: 35
Plant response rating, Crabgrass, Large [17, 26]: 65
Plant response rating, Signalgrass [18, 19]: 5
Plant response rating, Signalgrass [18, 20]: 10
Plant response rating, Signalgrass [18, 21]: 20
Plant response rating, Signalgrass [18, 22]: 5
Plant response rating, Signalgrass [18, 23]: 0
Plant response rating, Signalgrass [18, 24]: 0
Plant response rating, Signalgrass [18, 26]: 5
